These results are taken from patent US20190374534A1, “LIQUID PHARMACEUTICAL COMPOSITIONS COMPRISING PERGOLIDE” (Boehringer Ingelheim Vetmedica GmbH, priority 2018, published 2019).

SMILES strings stand for the structures. Counter-ions that a name gives are not always drawn.

A short description of the data set: Particle-size distribution (PSD) analysis, Malvern Mastersizer 3000. Type of data set: physicochemical. As to conditions: certificate of analysis, FIG. 1; after spiral jet-mill micronization. An excerpt:
PARTICLE-SIZE DISTRIBUTION (PSD) ANALYTICAL METHOD: Equipment Malvern Mastersizer 3000 equipped with Hydro MV dispersion unit Dispersant Preparation—1. Fill the dispersion unit with hexane—2. Check that the channel 1 of background signal is less than 80 and no anomalous spikes are present—3. Check the background signal: it has to be stable and complying with the following limits: Channel 1<100, Channel 20<60. Sample Preparation—Randomize the sample by manually tumbling and rolling for 30 seconds, weigh approximately 15 mg of powder in a 100 mL Erlenmeyer flask, add 2 mL of Span 85 (Sorbitane trioleate; 5% w/w water solution). A homogeneous mixture, using the tip of a small stainless steel spatula, has to be obtained. Using a Pasteur pipette add 1 mL of water and homogenize the suspension. Repeat this operation until a volume of 8-10 mL is reached. Sonicate the sample for 5 seconds in an ultrasonic bath (25 kHz). Procedure—1. Once a stable background signal is obtained, proceed with the SOP—2. Add the sample until the obscuration target is reached. Avoid droplets to fall directly into the liquid when adding the sample suspension putting the pipette tip under water—3. Initiate the measurement—4. The particle size distribution values (D10, D50 and D90) are taken directly from the Malvern screen. All three values determined for a sample are average and rounded to obtain the final values.

Consider `CCCN1C[C@H](CSC)C[C@@H]2c3cccc4[nH]cc(c34)C[C@H]21` [micronized pergolide mesylate, (8β)-8-[(methylthio)methyl]-6-propylergoline], for which the median particle size is 13.3 μm and the “particle size distribution D90 value” came to 39.4 μm.
